# Assay results from patent publication US6417190B1, “Tricyclic nitrogen heterocycles as PDE IV inhibitors” (Boehringer Ingelheim Pharma KG, priority 1998, dated 2002).
# Test system: human PDE IV
# Experiment: PDE IV inhibition, method of Torphy et al. (1992), [3H]cAMP, enzyme purified from human monocytes (U937-cells)
# Format: biochemical
# Conditions: 1 μCi/ml [3H] cAMP, 40 mM Tris-HCl (pH 7.8), 3 mM MgCl2, incubation 30 min at 30° C.
# Text: Table 1 contains the pharmacological data obtained for the compounds of general formula (I). The data was obtained by the method of Torphy et al. (1992), J. Pharmacol. Exp. Ther. 263:1195.
row,SMILES,IC50
1,CCn1c(=O)c2[nH]c(C3CCCC3)nc2n2nc(COc3ccccc3)nc12 [No. 15],0.11 µM
2,CCCn1c(=O)c2[nH]c(N3CCOCC3)nc2n2nc(Cc3ccccc3)nc12 [No. 16],0.11 µM
3,CCCc1nc2n(CCC)c(=O)c3[nH]c(C4CCCC4)nc3n2n1 [No. 6],0.049 µM
4,CCCc1nc2c([nH]1)c(=O)n(CCC)c1nc(C3CCCC3)nn21 [No. 19],0.12 µM
5,CCn1c(=O)c2[nH]c(C3CCCC3)nc2n2nc(CCc3ccccc3)nc12 [No. 4],0.046 µM
6,CCn1c(=O)c2[nH]c(C(C)(C)C)nc2n2nc(Cc3ccc(OC)cc3)nc12 [No. 3],0.042 µM
7,CCn1c(=O)c2[nH]c(C3CCCC3)nc2n2nc(Cn3cccc3)nc12 [No. 11],0.069 µM
8,CCCc1nc2c([nH]1)c(=O)n(CCC)c1nc(Cc3ccccc3)nn21 [No. 10],0.069 µM
9,CCn1c(=O)c2[nH]c(C(C)(C)C)nc2n2nc(Cc3ccccc3)nc12 [No. 7],0.053 µM
10,CCCc1nc2n(CCC)c(=O)c3[nH]c(-c4ccccc4)nc3n2n1 [No. 8],0.055 µM
11,CCCCc1nc2n(CCC)c(=O)c3[nH]c(C4CCCC4)nc3n2n1 [No. 14],0.081 µM
12,CCCn1c(=O)c2[nH]c(C3CCCC3)nc2n2nc(CC)nc12 [No. 2],0.039 µM
13,CCCn1c(=O)c2[nH]c(C3CCCC3)nc2n2nc(Cc3ccccc3)nc12 [No. 12],0.074 µM
14,CCc1nc2c([nH]1)c(=O)n(CC)c1nc(CC3CCCCC3)nn21 [No. 18],0.12 µM
15,CCn1c(=O)c2[nH]c(C3CCCC3)nc2n2nc(Cc3ccccc3)nc12 [No. 9],0.057 µM
16,CCCn1c(=O)c2[nH]c(C3CCCC3)nc2n2nc(C(C)C)nc12 [No. 1],0.018 µM
17,CCCn1c(=O)c2[nH]c(C3CCCC3)nc2n2nc(C(C)(C)C)nc12 [No. 13],0.079 µM
18,CCn1c(=O)c2[nH]c(C3CCCC3)nc2n2nc(CC3CCCCC3)nc12 [No. 17],0.11 µM
